Assay results from PMC5131319, “Occurrence, temporal trends, and half-lives of perfluoroalkyl acids (PFAAs) in occupational workers in China” (Scientific Reports, 2016).
Several values for one entry are separate records, joined by “and”; a condition that tells them apart may be missing. Equal entries are not always repeated.

How the values were obtained:
Type in all cases: in vivo, human
[1] = Half-life estimated by annual decline rates of serum PFAAs (first-order model); details: for half-life: human, k = average annual serum decline rate, no new inputs assumed, two time points
From the text: (§1) Olsen et al.[21] found linear relationship between the logarithm of serum PFAAs concentration and time, and a first order model was adopted to estimate the half-lives of PFAAs. The elimination of PFAAs in humans was also described with the following equation: […]
(§2) If we set C(t) as 1/2C0, then the half-life
(§3) where k is the elimination rate constant. We calculated k using two approaches in the present study. In the first approach, k is defined as Cltotal/Vd, where Vd stands for the volume of distribution of PFAAs in the human body. Cltotal represents the total daily PFAAs clearance in the human body; for men and women older than 50, it refers to renal clearance, while for young women, it is defined as the sum of menstrual clearance and renal clearance. To keep consistency with other studies, Vd of PFOS and PFHxS were set at 230 mL kg^−1, and Vd of PFOA was set at 170 mL kg^−1 in this study. In the second approach, k is defined as the average annual decline rates of PFAAs in workers who participated in this study.
Serum PFAAs of workers were sequentially measured for 5 years, and they fluctuated during our sampling period, although different serum PFAAs decreased in certain years. […] For PFOA, 31 out of 42 workers decreased in the period of 2011–2012, and the serum PFOA concentration dropped by 41%. […] We assumed that there were no new inputs of PFAAs in these workers, and thus k in Eq (2) was set as the average annual serum PFAA decline rate. The half-lives of PFHxS, PFOA, and PFOS estimated by Eq (2) were 3.6, 1.7, and 1.9 years.

[2] = Daily renal clearance rate (Clrenal) and serum-to-urine ratio from paired serum and urine; details: for Ratio of serum-to-urine concentrations (S/U), GM: all samples; for Clrenal, GM / Clrenal, range: all workers; for Clrenal, range: minimum on the basis of LOD/2; for Renal clearance rate (PFOA): individual workers
From the text: The positive correlations between the PFAAs in the serum and the paired urine samples were highly statistically significant, with correlation coefficients of 0.87, 0.64, and 0.72 for PFHxS, PFOA, and PFOS, respectively, (p < 0.01). […] Additionally, the relative abundances of PFOS, PFHxS, and PFOA between the serum and paired urine samples were quite different. The relative abundances in the serum are 64%, 24%, and 12%, respectively, while those in the urine were 19%, 31%, and 40%, respectively. […] Moreover, the ratio of serum-to-urine concentrations (S/U) might be an indicator for PFAA excretion in humans because PFAAs could concentrate in serum while urine excretion is considered an important PFAA elimination pathway. The GM values of S/U for PFHxS, PFOA, and PFOS in all samples were 697, 288, and 1782, respectively, indicating the difficulty in PFAA renal elimination from the workers. To exclude the potential effect of individual differences related to demographic information such as body weight and gender, the daily renal clearance rate (Clrenal) was introduced in the study. Clrenal is a parameter defined in Eq (3) that adjusts the S/U through body weight and the gender-specific daily urine excretion volume.
Paired samples with either concentration under the LOD were set as LOD/2 in the Clrenal study. The urine excretion volumes of males and females were set at 1.4 and 1.2 L/day in the study, respectively, and the body weight values of individual workers were obtained from our questionnaires. The calculated Clrenal values for PFHxS, PFOA, PFOS ranged from 2.0 × 10^−4 to 2.3, 9.0 × 10^−5 to 2.4, and 5.0 × 10^−5 to 0.54 mL day^−1 kg^−1 with GM values of 0.023, 0.067 and 0.010 mL day^−1 kg^−1, respectively (Fig. 3). The minimum values of the PFAAs Clrenal were calculated on the basis of LOD/2 instead of ND (not detected) in the present study. […] However, Zhang et al. observed that the Clrenal of PFHxS was the lowest among these 3 type of PFAAs[28]. The median Clrenal of PFAAs in the present study was similar to that of Zhou et al.’s study (0.012 mL day^−1 kg^−1 for PFHxS, 0.061 mL day^−1 kg^−1 for PFOA, and 0.010 mL day^−1 kg^−1 for PFOS)[39]. In contrast, as noted elsewhere, the Clrenal values of PFOA were the highest among those of the three PFAAs[28][38]. The most recent study on the elevated serum concentrations of PFAAs in fishery employees from Tangxun Lake also stated that the median Clrenal of PFOA (0.061 mL day^−1 kg^−1) was higher than those of the PFHxS and PFOS (0.012 and 0.010 mL day^−1 kg^−1)[39]. […] Moreover, the renal clearance rates of PFAAs in humans were not obviously influenced by the PFAAs level in the serum. […] In addition, gender could not be discounted. The Clrenal values of PFOS for the male workers were significant lower than those for the females (p < 0.01). Wong et al. studied the elimination rate constant of PFOS in a USA population and speculated that there might be other sex-specific elimination routes other than menstruation between men and women. No significant differences were found between the Clrenal values of PFOA and PFHxS for the males and females tested in the study.

[3] = Half-life estimated by daily clearance rates (first-order model, k = Cltotal/Vd); details: for half-life: human, serum and urine, other: occupational exposure
From the text: as §1, §2, §3
We used a first order model to estimate the half-lives of PFAAs in workers (Eq (2)). k was defined as […], where Cltotal referred to renal clearance for men and women older than 50 and to the sum of menstrual clearance and renal clearance for young women. According to Eq (2), the half-lives of PFHxS, PFOA, and PFOS for the occupational workers tested ranged from 0.51–3799 years, 0.44–3663 years, and 0.76–30475 years, with GM and median values of 14.7 and 11.7, 4.1 and 4.0, 32.6 and 21.6 years, respectively (Table 2). […] The GM values of the half-lives of PFHxS, PFOA, and PFOS for men here were 19.9, 4.7, and 60.9 years, respectively, while those for women were 7.5, 3.1, and 8.0 years, respectively. The half-lives estimated by the limited clearance route information could be considered as the upper limits for PFAAs. It seemed likely that the unrealistically long half-life estimates derived from the urinary data were actually evidence of the contribution of fecal elimination to the clearance of these chemicals. The extremely long half-lives of PFAAs, such as 3799 years for PFHxS, 3663 years for PFOA, and 30475 years for PFOS, were caused by the application of LOD/2 instead of ND in workers’ urine samples. The geometric mean or median value of the PFAAs half-lives can better reflect the actual situation.

[4] = Female workers, number 71, menstrual clearance added to renal clearance
[5] = Male workers, number 136, renal clearance
[6] = both sexes, Total workers, number 207, read-out: Half-life estimated through daily elimination, GM (converted)
[7] = both sexes, Total workers, number 207, read-out: Half-life estimated through daily elimination, Median (converted)
[8] = female, Female workers, number 71, menstrual clearance added to renal clearance, read-out: Half-life estimated through daily elimination, GM (converted)
[9] = male, Male workers, number 136, renal clearance, read-out: Half-life estimated through daily elimination, Median (converted)

| Structure (SMILES) | half-life [1] [days] | Ratio of serum-to-urine concentrations (S/U), GM [2] | Clrenal, GM [2] [mL/day/kg] | Clrenal, range [2] | Half-life estimated through daily elimination, Max [3, 4] [years] | Half-life estimated through daily elimination, Min [3, 4] [years] | Half-life estimated through daily elimination, Min [3, 5] [years] | Half-life estimated through daily elimination, Min ([3]; Total workers, number 207) [years] | half-life [3, 6] [days] | half-life [3, 7] [days] | half-life [3, 8] [days] | half-life [3, 9] [days] | other results |
| --- | --- | --- | --- | --- | --- | --- | --- | --- | --- | --- | --- | --- | --- |
| O=S(=O)(O)C(F)(F)C(F)(F)C(F)(F)C(F)(F)C(F)(F)C(F)(F)F [PFHxS, perfluorohexane sulfonate] | 1310 | 697 | 0.023 | 2.0 × 10^−4 to 2.3 mL day^−1 kg^−1 | 15.1 | 2.8 | 0.51 | 0.51 | 5370 | 4270 | 2740 | 5300 | Annual drop of serum concentration ([1]; 2009 to 2010, 37 workers): 19%; half-life ([3]; female, Female workers, number 71, menstrual clearance added to renal clearance, read-out: Half-life estimated through daily elimination, Median (converted)): 2780 days |
| O=C(O)C(F)(F)C(F)(F)C(F)(F)C(F)(F)C(F)(F)C(F)(F)C(F)(F)F [PFOA, perfluorooctanoic acid] | 621 | 288 | 0.067 | 9.0 × 10^−5 to 2.4 mL day^−1 kg^−1 | 11.1 | 0.44 | 0.48 | 0.44 | 1500 | 1460 | 1130 | 1610 | Drop of serum concentration ([1]; 2011–2012, 42 workers): 41%; Renal clearance rate (PFOA) ([2]; sampling year 2008): 0.093 mL/day/kg and 0.043 mL/day/kg and 0.141 mL/day/kg and 0.074 mL/day/kg and 0.069 mL/day/kg and 0.087 mL/day/kg and 0.012 mL/day/kg and 0.060 mL/day/kg and 0.127 mL/day/kg and 0.027 mL/day/kg and 0.068 mL/day/kg and 0.030 mL/day/kg and 0.111 mL/day/kg and 0.033 mL/day/kg and 0.047 mL/day/kg and 0.161 mL/day/kg and 0.052 mL/day/kg and 0.214 mL/day/kg and 0.096 mL/day/kg and 0.055 mL/day/kg and 0.042 mL/day/kg and 0.106 mL/day/kg and 0.021 mL/day/kg and 0.157 mL/day/kg and 0.058 mL/day/kg and 0.034 mL/day/kg; Renal clearance rate (PFOA) ([2]; sampling year 2009): 0.174 mL/day/kg and 0.318 mL/day/kg and 0.286 mL/day/kg and 0.110 mL/day/kg and 0.366 mL/day/kg and 0.046 mL/day/kg and 0.403 mL/day/kg and 0.070 mL/day/kg and 0.128 mL/day/kg and 0.090 mL/day/kg and 0.114 mL/day/kg and 0.071 mL/day/kg and 0.289 mL/day/kg and 0.235 mL/day/kg and 0.096 mL/day/kg and 0.264 mL/day/kg and 0.117 mL/day/kg and 0.057 mL/day/kg and 0.051 mL/day/kg and 0.262 mL/day/kg and 0.197 mL/day/kg and 0.077 mL/day/kg and 0.363 mL/day/kg; Renal clearance rate (PFOA) ([2]; sampling year 2011): 0.101 mL/day/kg and 0.205 mL/day/kg and 0.124 mL/day/kg and 0.077 mL/day/kg and 0.096 mL/day/kg and 0.081 mL/day/kg and 0.014 mL/day/kg and 0.080 mL/day/kg and 0.027 mL/day/kg and 0.082 mL/day/kg and 0.120 mL/day/kg and 0.066 mL/day/kg and 0.057 mL/day/kg and 0.037 mL/day/kg and 0.063 mL/day/kg and 0.270 mL/day/kg and 0.075 mL/day/kg and 0.060 mL/day/kg and 0.085 mL/day/kg and 0.181 mL/day/kg and 0.107 mL/day/kg and 0.258 mL/day/kg and 0.674 mL/day/kg and 0.290 mL/day/kg and 0.300 mL/day/kg and 0.058 mL/day/kg; Renal clearance rate (PFOA) ([2]; sampling year 2012): 0.089 mL/day/kg and 0.052 mL/day/kg and 0.038 mL/day/kg and 0.045 mL/day/kg and 0.082 mL/day/kg and 0.114 mL/day/kg and 0.012 mL/day/kg and 0.044 mL/day/kg and 0.098 mL/day/kg and 0.049 mL/day/kg and 0.030 mL/day/kg and 0.027 mL/day/kg and 0.029 mL/day/kg and 0.054 mL/day/kg and 0.033 mL/day/kg and 0.199 mL/day/kg and 0.105 mL/day/kg and 0.069 mL/day/kg and 0.236 mL/day/kg and 0.139 mL/day/kg and 0.040 mL/day/kg and 0.084 mL/day/kg and 0.170 mL/day/kg; Half-life estimated through daily elimination, Median [3, 4]: 2.8 years; half-life ([3]; male, Male workers, number 136, renal clearance, read-out: Half-life estimated through daily elimination, GM (converted)): 1720 days |
